Converted amounts (≈) assume the structure as drawn. The source made the active and inactive calls. The calls are words filed in the database; no cut-off is given here.
Tests used:
Assay type in all cases: functional
[1] = tested on: Escherichia coli; assay: Antibacterial activity against Escherichia coli ATCC 25922 incubated for 16 to 20 hrs in presence of 50% foetal bovine serum by broth microdilution method; details: time 16-20 hrs
[2] = tested on: Staphylococcus chromogenes; assay: Antibacterial activity against Staphylococcus chromogenes incubated for 16 to 20 hrs by broth microdilution method; details: time 16-20 hrs
[3] = tested on: Escherichia coli; assay: Antibacterial activity against Escherichia coli ATCC 25922 incubated for 16 to 20 hrs using 10^7 CFU/ml bacterial inoculum by broth microdilution method; details: time 16-20 hrs
[4] = tested on: Staphylococcus aureus; assay: Antibacterial activity against Staphylococcus aureus ATCC 25923 incubated for 16 to 20 hrs by broth microdilution method; details: time 16-20 hrs
[5] = tested on: Pseudomonas aeruginosa; assay: Antibacterial activity against Pseudomonas aeruginosa LTP-3 incubated for 16 to 20 hrs by broth microdilution method; details: time 16-20 hrs
[6] = tested on: Escherichia coli; assay: Antibacterial activity against Escherichia coli ATCC 25922 incubated for 16 to 20 hrs by broth microdilution method; details: time 16-20 hrs
[7] = tested on: Escherichia coli; assay: Antibacterial activity against Escherichia coli incubated for 16 to 20 hrs by broth microdilution method; details: time 16-20 hrs
[8] = tested on: Escherichia coli; assay: Antibacterial activity against Escherichia coli ATCC 25922 incubated for 16 to 20 hrs using 10^4 CFU/ml bacterial inoculum by broth microdilution method; details: time 16-20 hrs
[9] = tested on: Escherichia coli; assay: Antibacterial activity against Escherichia coli ATCC 25922 incubated for 16 to 20 hrs using 10^3 CFU/ml bacterial inoculum by broth microdilution method; details: time 16-20 hrs
[10] = tested on: Escherichia coli; assay: Antibacterial activity against Escherichia coli ATCC 25922 incubated for 16 to 20 hrs using 10^6 CFU/ml bacterial inoculum by broth microdilution method; details: time 16-20 hrs
[11] = tested on: Cronobacter sakazakii; assay: Antibacterial activity against Cronobacter sakazakii ATCC 29544 incubated for 16 to 20 hrs by broth microdilution method; details: time 16-20 hrs
[12] = tested on: Escherichia coli; assay: Antibacterial activity against Escherichia coli ATCC 25922 incubated for 16 to 20 hrs in presence of 10% foetal bovine serum by broth microdilution method; details: time 16-20 hrs
[13] = tested on: Enterococcus faecium; assay: Antibacterial activity against Enterococcus faecium incubated for 16 to 20 hrs by broth microdilution method; details: time 16-20 hrs
[14] = tested on: Escherichia coli; assay: Antibacterial activity against Escherichia coli ATCC 25922 incubated for 16 to 20 hrs in absence of foetal bovine serum by broth microdilution method; details: time 16-20 hrs
[15] = tested on: Escherichia coli; assay: Antibacterial activity against Escherichia coli ATCC 25922 incubated for 16 to 20 hrs in presence of 5% foetal bovine serum by broth microdilution method; details: time 16-20 hrs
[16] = tested on: Streptococcus dysgalactiae; assay: Antibacterial activity against Streptococcus dysgalactiae incubated for 16 to 20 hrs by broth microdilution method; details: time 16-20 hrs
[17] = tested on: Escherichia coli; assay: Antibacterial activity against Escherichia coli ATCC 25922 incubated for 16 to 20 hrs using 10^5 CFU/ml bacterial inoculum by broth microdilution method; details: time 16-20 hrs
[18] = tested on: Staphylococcus aureus; assay: Antibacterial activity against Staphylococcus aureus incubated for 16 to 20 hrs by broth microdilution method; details: time 16-20 hrs
[19] = tested on: Klebsiella pneumoniae; assay: Antibacterial activity against Klebsiella pneumoniae ATCC 13883 incubated for 16 to 20 hrs by broth microdilution method; details: time 16-20 hrs
[20] = tested on: Escherichia coli; assay: Antibacterial activity against Escherichia coli ATCC 25922 incubated for 16 to 20 hrs in presence of 25% foetal bovine serum by broth microdilution method; details: time 16-20 hrs
[21] = tested on: Staphylococcus aureus; assay: Antibacterial activity against Staphylococcus aureus ATCC 29213 incubated for 16 to 20 hrs using 10^5 CFU/ml bacterial inoculum by broth microdilution method; details: time 16-20 hrs
[22] = tested on: Staphylococcus aureus; assay: Antibacterial activity against Staphylococcus aureus ATCC 29213 at pH 8.6 incubated for 16 to 20 hrs in presence of 10% foetal bovine serum by broth microdilution method; details: time 16-20 hrs
[23] = tested on: Staphylococcus aureus; assay: Antibacterial activity against Staphylococcus aureus ATCC 29213 at pH 8.6 incubated for 16 to 20 hrs in presence of 50% foetal bovine serum by broth microdilution method; details: time 16-20 hrs
[24] = tested on: Staphylococcus aureus; assay: Antibacterial activity against Staphylococcus aureus ATCC 29213 incubated for 16 to 20 hrs using 10^4 CFU/ml bacterial inoculum by broth microdilution method; details: time 16-20 hrs
[25] = tested on: Escherichia coli; assay: Induction of drug resistance in Escherichia coli ATCC 25922 assessed as increase in MIC measured after 30 passages by broth microdilution method
[26] = tested on: Staphylococcus aureus; assay: Antibacterial activity against Staphylococcus aureus ATCC 29213 at pH 8.6 incubated for 16 to 20 hrs in presence of 25% foetal bovine serum by broth microdilution method; details: time 16-20 hrs
[27] = tested on: Staphylococcus aureus; assay: Antibacterial activity against Staphylococcus aureus ATCC 29213 at pH 8.6 incubated for 16 to 20 hrs in presence of 5% foetal bovine serum by broth microdilution method; details: time 16-20 hrs
[28] = tested on: Staphylococcus aureus; assay: Antibacterial activity against Staphylococcus aureus ATCC 29213 incubated for 16 to 20 hrs using 10^3 CFU/ml bacterial inoculum by broth microdilution method; details: time 16-20 hrs
[29] = tested on: Staphylococcus aureus; assay: Antibacterial activity against Staphylococcus aureus ATCC 29213 incubated for 16 to 20 hrs using 10^6 CFU/ml bacterial inoculum by broth microdilution method; details: time 16-20 hrs

Question: How did the MIC [1] turn out when C[C@@H](O)[C@H]1C(=O)N2C(C(=O)O)=C(S[C@@H]3CN[C@H](C(=O)N(C)C)C3)[C@H](C)[C@H]12 [MEROPENEM] was run?
Answer: < 0.0625 µg/mL

Question: What about the MIC [2] of the same compound?
Answer: 0.0625 µg/mL (≈ 0.163 µM)

Question: What about the MIC [3] of the same compound?
Answer: < 0.0625 µg/mL

Question: What about the MIC [4] of the same compound?
Answer: 0.0625 µg/mL (≈ 0.163 µM)

Question: And the MIC [5]?
Answer: < 0.0625 µg/mL

Question: And the MIC [6]?
Answer: 0.125 µg/mL (≈ 0.326 µM)

Question: What about the MIC [7] of the same compound?
Answer: < 0.0625 µg/mL

Question: And the MIC [8]?
Answer: < 0.0625 µg/mL

Question: And the MIC [9]?
Answer: < 0.0625 µg/mL

Question: What about the MIC [10] of the same compound?
Answer: < 0.0625 µg/mL

Question: What about the MIC [11] of the same compound?
Answer: 0.0625 µg/mL (≈ 0.163 µM)

Question: What about the MIC [12] of the same compound?
Answer: < 0.0625 µg/mL

Question: And the MIC [13]?
Answer: 8 µg/mL (≈ 20.9 µM)

Question: What about the MIC [14] of the same compound?
Answer: < 0.0625 µg/mL

Question: What about the MIC [15] of the same compound?
Answer: < 0.0625 µg/mL

Question: What about the MIC [16] of the same compound?
Answer: 8 µg/mL (≈ 20.9 µM)

Question: And the MIC [17]?
Answer: < 0.0625 µg/mL

Question: And the MIC [18]?
Answer: < 0.0625 µg/mL

Question: And the MIC [19]?
Answer: < 0.0625 µg/mL

Question: And the MIC [20]?
Answer: < 0.0625 µg/mL

Question: With CC(=O)NC[C@H]1CN(c2ccc(N3CCOCC3)c(F)c2)C(=O)O1 [LINEZOLID] as the compound, how does the MIC [2] read?
Answer: 1 µg/mL (≈ 2.96 µM)

Question: What about the MIC [21] of the same compound?
Answer: 0.5 µg/mL (≈ 1.48 µM)

Question: And the MIC [5]?
Answer: 32 µg/mL (≈ 94.9 µM)

Question: And the MIC [6]?
Answer: > 32 µg/mL

Question: What about the MIC [7] of the same compound?
Answer: 32 µg/mL (≈ 94.9 µM)

Question: What about the MIC [22] of the same compound?
Answer: > 32 µg/mL

Question: And the MIC [23]?
Answer: > 32 µg/mL

Question: And the MIC [24]?
Answer: 0.25 µg/mL (≈ 0.741 µM)

Question: And the MIC [11]?
Answer: > 32 µg/mL

Question: What about the MIC [13] of the same compound?
Answer: 2 µg/mL (≈ 5.93 µM)

Question: And the Activity [25]?
Answer: Active

Question: What about the MIC [26] of the same compound?
Answer: > 32 µg/mL

Question: And the MIC [27]?
Answer: > 32 µg/mL

Question: And the MIC [16]?
Answer: 2 µg/mL (≈ 5.93 µM)

Question: What about the MIC [28] of the same compound?
Answer: 0.25 µg/mL (≈ 0.741 µM)

Question: And the MIC [18]?
Answer: 1 µg/mL (≈ 2.96 µM)

Question: And the MIC [19]?
Answer: > 32 µg/mL

Question: And the MIC [29]?
Answer: 1 µg/mL (≈ 2.96 µM)

Question: How did the Activity [25] turn out when CS(=O)(=O)c1ccc([C@@H](O)[C@@H](CF)NC(=O)C(Cl)Cl)cc1 was run?
Answer: Active
